Laboratory results published in patent US20190343908A1, “Therapeutic Combination for the Treatment of Cancer” (Nerium Biotechnology Inc., priority 2011, published 2019).

Key:
[1] = test system: COLO699N lung cancer cell line; assay: Methyl-Tetrazolium viability assay, COLO699N; format: cell-based, human; parameters: key to MTT Average: absorbance (optical density) at 570 nm, second wavelength subtracted; details: for Average MTT 24 h / Average MTT 48 h / Average MTT 72 h: COLO699N Run 1; for ABSORBANCE: COLO699N, 0.1 μg/mL cisplatin
Text: (§1) Three different viability assays were chosen to complement each other and yielded results dependent on concentration and cell line: the Methyl Tetrazolium dye assay, the Sulforhodamine B fluorescent dye assay, and the Crystal Violet dye assay.
The Methyl-Tetrazolium dye assay measures the activity of enzymes in mitochondria. The dye precursor is taken up by cells, where it undergoes reduction to the purple formazan. It measures only the mitochondrial activity and, thus, it is not always a reliable indication of whether the cells themselves are alive or dead, since even a recently dead cell has […] enzyme activity in mitochondria. Intracellular glucose concentration, pH, and time before assay all affect the measurements.
(§2) The Methyl Tetrazolium, Sulforhodamine B, and Crystal Violet assays were used to assess cell viabilities. The incubation times were 24 hours, 48 hours, and 72 hours. The Nerium oleander extract Anvirzel™ (a hot water extract of oleander obtained from Salud Integral, Honduras) was tested in concentrations ranging from 0.01 ng/mL to 10 ng/mL.
(§3) Cells were detached by trypsinization (Trypsin-0.25% EDTA, Invitrogen, 25200-072) during the logarithmic phase of culture growth and plated in 96-well plates (18.000 cells/well) (Corning, Costar 359) in a final volume of 200 μl of medium per well. […] The absorbance was measured after 24 hours, 48 hours, and 72 hours of incubation.
For the Methyl-Tetrazolium assay, the dye (Sigma, M2128; 5 mg/mL, diluted in phosphate-buffered saline) was added to each well and plates were incubated for 3 hours at 37° C. After the end of the incubation period, the medium was discarded and the cells were rinsed with phosphate-buffered saline. Finally, the formazan crystals were dissolved in dimethylsulphoxide (Sigma, D4540).
(§4) The optical density of each plate was measured on a μQuant spectrophotometer and the data were analyzed with Gen5 software (μQuant Biomolecular Spectrophotometer MQX200 and Gen5™ Microplate Data Collection & Analysis software, BioTek® Instruments. Inc, April 2008). Absorbance was measured at 570 nm for all assays and a second wavelength was measured in order to subtract noise. For the Methyl-Tetrazolium assay this second wavelength was 630 nm and for the Sulforhodamine B and Crystal Violet assays it was 690 nm.

[2] = test system: LNCaP prostate cancer cell line; assay: Sulforhodamine B viability assay, LNCaP; format: cell-based, human; details: for ABSORBANCE: LNCaP, 0.1 μg/mL cisplatin
Text: as §1
The Sulforhodamine B and Crystal Violet assays provide information about protein and were used to complement the Methyl-Tetrazolium dye assay. […] It is used for the quantification of cellular proteins of cultured cells. The assay using Crystal Violet, a dye that binds electrostatically to proteins and stains DNA, provides a reliable, simple assay for measuring viability of cells.
as §2, §3
For the Sulforhodamine B assay, 96-well plates were fixed by 10% trichloroacetic acid (Fluka, 91228) and were incubated at 4° C. for 1 hour. Afterwards, plates were rinsed with water and cells were stained with 0.4% Sulforhodamine B (Sigma, 341738), dissolved in 1% acetic acid (Carlo Ebra, 401422) for 15 minutes at room temperature (RT). The unbound stain was washed twice with 1% acetic acid. Finally, 10 mM Tris Buffer pH 10.5 (Sigma, T6791) was added to dissolve the dye.
as §4

N.N.[Cl][Pt][Cl] [cisplatin] was tested, and the “Average MTT 24 h” value ([1]; 0.1 μg/ml CDDP) was 0.122, the “Average MTT 48 h” value ([1]; 0.1 μg/ml CDDP, 48 h) was 0.179 and the “Average MTT 72 h” value ([1]; 0.1 μg/ml CDDP, 72 h) was 0.237. The “Average MTT 24 h” value ([1]; 1 μg/ml CDDP) was 0.023, the “Average MTT 48 h” value ([1]; 1 μg/ml CDDP, 48 h) was 0.016 and the “Average MTT 72 h” value ([1]; 1 μg/ml CDDP, 72 h) was 0.019. For the same compound, the “Average MTT 24 h” value ([1]; 10 μg/ml CDDP) was 0.384, the “Average MTT 48 h” value ([1]; 10 μg/ml CDDP, 48 h) was 0.012 and the “Average MTT 72 h” value ([1]; 10 μg/ml CDDP, 72 h) was 0.016. For the same compound, the “Average MTT 24 h” value ([1]; 100 μg/ml CDDP) was 0.033, the “Average MTT 48 h” value ([1]; 100 μg/ml CDDP, 48 h) was 0.011 and the “Average MTT 72 h” value ([1]; 100 μg/ml CDDP, 72 h) was 0.014. For the same compound, the ABSORBANCE ([1]; 48 h) was 0.636, the ABSORBANCE ([1]; 72 h) was 0.73 and the “MTT Average” value ([1]; Run 2, 24 h, 0.1 μg/ml CDDP) was 0.362. For the same compound, the “MTT Average” value ([1]; Run 2, 24 h, 1 μg/ml CDDP) was 0.055, the “MTT Average” value ([1]; Run 2, 24 h, 10 μg/ml CDDP) was 0.178 and the “MTT Average” value ([1]; Run 2, 24 h, 100 μg/ml CDDP) was 0.04. The “MTT Average” value ([1]; Run 2, 48 h, 0.1 μg/ml CDDP) was 0.636, the “MTT Average” value ([1]; Run 2, 48 h, 1 μg/ml CDDP) was 0.04 and the “MTT Average” value ([1]; Run 2, 48 h, 10 μg/ml CDDP) was 0.049. The “MTT Average” value ([1]; Run 2, 48 h, 100 μg/ml CDDP) was 0.018, the “MTT Average” value ([1]; Run 2, 72 h, 0.1 μg/ml CDDP) was 0.73 and the “MTT Average” value ([1]; Run 2, 72 h, 1 μg/ml CDDP) was 0.044. The “MTT Average” value ([1]; Run 2, 72 h, 10 μg/ml CDDP) was 0.057, the “MTT Average” value ([1]; Run 2, 72 h, 100 μg/ml CDDP) was 0.068 and the “MTT Average” value ([1]; Run 3, 24 h, 0.1 μg/ml CDDP) was 0.365. For the same compound, the “MTT Average” value ([1]; Run 3, 24 h, 1 μg/ml CDDP) was 0.04, the “MTT Average” value ([1]; Run 3, 24 h, 10 μg/ml CDDP) was 0.148 and the “MTT Average” value ([1]; Run 3, 24 h, 100 μg/ml CDDP) was 0.041. For the same compound, the “MTT Average” value ([1]; Run 3, 48 h, 0.1 μg/ml CDDP) was 0.442, the “MTT Average” value ([1]; Run 3, 48 h, 1 μg/ml CDDP) was 0.063 and the “MTT Average” value ([1]; Run 3, 48 h, 10 μg/ml CDDP) was 0.041. The “MTT Average” value ([1]; Run 3, 48 h, 100 μg/ml CDDP) was 0.025, the “MTT Average” value ([1]; Run 3, 72 h, 0.1 μg/ml CDDP) was 0.638 and the “MTT Average” value ([1]; Run 3, 72 h, 1 μg/ml CDDP) was 0.078. For the same compound, the “MTT Average” value ([1]; Run 3, 72 h, 10 μg/ml CDDP) was 0.026, the “MTT Average” value ([1]; Run 3, 72 h, 100 μg/ml CDDP) was 0.027 and the “SRB Average” value ([2]; LNCaP Run 3, 24 h, 0.1 μg/ml CDDP) was 1.975. For the same compound, the “SRB Average” value ([2]; LNCaP Run 3, 24 h, 1 μg/ml CDDP) was 1.541, the “SRB Average” value ([2]; LNCaP Run 3, 24 h, 10 μg/ml CDDP) was 1.242 and the “SRB Average” value ([2]; LNCaP Run 3, 24 h, 100 μg/ml CDDP) was 1.2. The “SRB Average” value ([2]; LNCaP Run 3, 48 h, 0.1 μg/ml CDDP) was 1.761, the “SRB Average” value ([2]; LNCaP Run 3, 48 h, 1 μg/ml CDDP) was 1.56 and the “SRB Average” value ([2]; LNCaP Run 3, 48 h, 10 μg/ml CDDP) was 1.46. For the same compound, the “SRB Average” value ([2]; LNCaP Run 3, 48 h, 100 μg/ml CDDP) was 1.284, the “SRB Average” value ([2]; LNCaP Run 3, 72 h, 0.1 μg/ml CDDP) was 2.009 and the “SRB Average” value ([2]; LNCaP Run 3, 72 h, 1 μg/ml CDDP) was 1.584. The “SRB Average” value ([2]; LNCaP Run 3, 72 h, 10 μg/ml CDDP) was 1.561, the “SRB Average” value ([2]; LNCaP Run 3, 72 h, 100 μg/ml CDDP) was 1.421 and the ABSORBANCE ([2]; 48 h) was 1.681. The ABSORBANCE ([2]; 72 h) was 1.766, the “Average SRB 24 h” value ([2]; Run 1, 0.1 μg/ml CDDP) was 1.611 and the “Average SRB 48 h” value ([2]; Run 1, 0.1 μg/ml CDDP) was 2.798. For the same compound, the “Average SRB 72 h” value ([2]; Run 1, 0.1 μg/ml CDDP) was 2.532, the “Average SRB 24 h” value ([2]; Run 1, 1 μg/ml CDDP) was 1.294 and the “Average SRB 48 h” value ([2]; Run 1, 1 μg/ml CDDP) was 2.888. For the same compound, the “Average SRB 72 h” value ([2]; Run 1, 1 μg/ml CDDP) was 2.483, the “Average SRB 24 h” value ([2]; Run 1, 10 μg/ml CDDP) was 1.205 and the “Average SRB 48 h” value ([2]; Run 1, 10 μg/ml CDDP) was 2.893. The “Average SRB 72 h” value ([2]; Run 1, 10 μg/ml CDDP) was 2.648, the “Average SRB 24 h” value ([2]; Run 1, 100 μg/ml CDDP) was 1.2 and the “Average SRB 48 h” value ([2]; Run 1, 100 μg/ml CDDP) was 2.555. The “Average SRB 72 h” value ([2]; Run 1, 100 μg/ml CDDP) was 2.649, the “Average SRB 24 h” value ([2]; Run 2, 0.1 μg/ml CDDP) was 1.78 and the “Average SRB 48 h” value ([2]; Run 2, 0.1 μg/ml CDDP) was 1.681. For the same compound, the “Average SRB 72 h” value ([2]; Run 2, 0.1 μg/ml CDDP) was 1.766, the “Average SRB 24 h” value ([2]; Run 2, 1 μg/ml CDDP) was 1.495 and the “Average SRB 48 h” value ([2]; Run 2, 1 μg/ml CDDP) was 1.14. For the same compound, the “Average SRB 72 h” value ([2]; Run 2, 1 μg/ml CDDP) was 1.396, the “Average SRB 24 h” value ([2]; Run 2, 10 μg/ml CDDP) was 0.982 and the “Average SRB 48 h” value ([2]; Run 2, 10 μg/ml CDDP) was 1.077. The “Average SRB 72 h” value ([2]; Run 2, 10 μg/ml CDDP) was 1.28, the “Average SRB 24 h” value ([2]; Run 2, 100 μg/ml CDDP) was 0.985 and the “Average SRB 48 h” value ([2]; Run 2, 100 μg/ml CDDP) was 1.138. The “Average SRB 72 h” value ([2]; Run 2, 100 μg/ml CDDP) was 1.25.
